Assays:
Details in all cases: exposure time: 90 min
1083 [1] = donor line of iPSC-derived cardiomyocytes; assay: POD (EC95) for loss of peak frequency (asystole) vs vehicle; higher = less potent (higher point of departure)
Protocol: (§1)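 Human iPSC-derived cardiomyocytes from 16 donors were exposed for 90 min at 37 °C to each PFAS at 0.1, 1, 10 and 100 µM in 0.5% DMSO, 384-well plates. Kinetic Ca2+ flux (FLIPR) and Hoechst nuclei counts were normalised to vehicle wells and fitted with a hierarchical Bayesian Hill model to give donor-specific PODs: EC05 for beat-rate increase or decrease and for decay-to-rise ratio increase (QT proxy), EC95 for peak-frequency loss (asystole), EC10 for total cell number loss. 0.03 µM is the lower bound.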

1518 [2] = donor line of iPSC-derived cardiomyocytes; assay: as above
Protocol: as §1

1531 [3] = donor line of iPSC-derived cardiomyocytes; assay: as above
Protocol: as §1

30171 [4] = donor line of iPSC-derived cardiomyocytes; assay: as above
Protocol: as §1

1083 [5] = assay: POD (EC10) for decrease in total cell number (cytotoxicity) vs vehicle; higher = less potent (higher point of departure)
Protocol: as §1

1118 = donor line of iPSC-derived cardiomyocytes; assay: as above
Protocol: as §1

11235 = donor line of iPSC-derived cardiomyocytes; assay: as above
Protocol: as §1

1309 = donor line of iPSC-derived cardiomyocytes; assay: as above
Protocol: as §1

1368 = donor line of iPSC-derived cardiomyocytes; assay: as above
Protocol: as §1

1392 = donor line of iPSC-derived cardiomyocytes; assay: as above
Protocol: as §1

1434 = donor line of iPSC-derived cardiomyocytes; assay: as above
Protocol: as §1

1516 = donor line of iPSC-derived cardiomyocytes; assay: as above
Protocol: as §1

1518 [6] = assay: as above
Protocol: as §1

1531 [7] = assay: as above
Protocol: as §1

1535 = donor line of iPSC-derived cardiomyocytes; assay: as above
Protocol: as §1

1565 = donor line of iPSC-derived cardiomyocytes; assay: as above
Protocol: as §1

20032 = donor line of iPSC-derived cardiomyocytes; assay: as above
Protocol: as §1

20084 = donor line of iPSC-derived cardiomyocytes; assay: as above
Protocol: as §1

30145 = donor line of iPSC-derived cardiomyocytes; assay: as above
Protocol: as §1

30171 [8] = assay: as above
Protocol: as §1

Compound	POD vs vehicle 1083 [1] [µM]	POD vs vehicle 1518 [2] [µM]	POD vs vehicle 1531 [3] [µM]	POD vs vehicle 30171 [4] [µM]	POD vs vehicle 1083 [5] [µM]	POD vs vehicle 1118 [µM]	POD vs vehicle 11235 [µM]	POD vs vehicle 1309 [µM]	POD vs vehicle 1368 [µM]	POD vs vehicle 1392 [µM]	POD vs vehicle 1434 [µM]	POD vs vehicle 1516 [µM]	POD vs vehicle 1518 [6] [µM]	POD vs vehicle 1531 [7] [µM]	POD vs vehicle 1535 [µM]	POD vs vehicle 1565 [µM]	POD vs vehicle 20032 [µM]	POD vs vehicle 20084 [µM]	POD vs vehicle 30145 [µM]	POD vs vehicle 30171 [8] [µM]
OCC(O)CC(F)(F)C(F)(F)C(F)(F)C(F)(F)C(F)(F)C(F)(F)C(F)(F)C(F)(F)F (stereo not given) [1-(Perfluorofluorooctyl)propane-2,3-diol]	> 100	> 100	> 100	> 100	> 100	> 100	> 100	> 100	> 100	> 100	> 100	> 100	> 100	> 100	> 100	> 100	> 100	> 100	> 100	> 100
O=C(O)C(F)(F)C(F)(F)F [Perfluoropropanoic_acid]	> 100	> 100	> 100	> 100	> 100	> 100	> 100	> 100	> 100	> 100	> 100	> 100	> 100	> 100	> 100	> 100	> 100	> 100	> 100	> 100
O=C(O)CCC(F)(F)C(F)(F)C(F)(F)F [3:3 Fluorotelomer carboxylic acid]	> 100	> 100	> 100	> 100	> 100	> 100	> 100	> 100	> 100	> 100	> 100	> 100	> 100	> 100	> 100	> 100	> 100	> 100	> 100	> 100
O=S(=O)(OCC(F)(F)F)C(F)(F)C(F)(F)C(F)(F)C(F)(F)F [2,2,2-Trifluoroethyl_perfluorobutanesulfonate]	> 100	> 100	> 100	> 100	> 100	> 100	> 100	> 100	> 100	> 100	> 100	> 100	> 100	> 100	> 100	> 100	> 100	> 100	> 100	> 100
O=P(O)(O)CCC(F)(F)C(F)(F)C(F)(F)C(F)(F)C(F)(F)C(F)(F)C(F)(F)C(F)(F)F [((Perfluorooctyl)ethyl)phosphonic_acid]	> 100	> 100	> 100	> 100	> 100	> 100	> 100	> 100	> 100	> 100	> 100	> 100	> 100	> 100	> 100	> 100	> 100	> 100	> 100	> 100
NC(O)(C(F)(F)F)C(F)(F)F [2-Aminohexafluoropropan-2-ol]	> 100	> 100	> 100	> 100	> 100	> 100	> 100	> 100	> 100	> 100	> 100	> 100	> 100	> 100	> 100	> 100	> 100	> 100	> 100	> 100
O=S(=O)(O)CCC(F)(F)C(F)(F)C(F)(F)C(F)(F)C(F)(F)C(F)(F)F [6:2 Fluorotelomer sulfonic acid]	> 100	> 100	> 100	> 100	> 100	> 100	> 100	> 100	> 100	> 100	> 100	> 100	> 100	> 100	> 100	> 100	> 100	> 100	> 100	> 100
O=C(O)C(F)(F)OC(F)(F)C(F)(F)OC(F)(F)C(=O)O [Perfluoro-3,6-dioxaoctane-1,8-dioic_acid]	> 100	> 100	> 100	> 100	> 100	> 100	> 100	> 100	> 100	> 100	> 100	> 100	> 100	> 100	> 100	> 100	> 100	> 100	> 100	> 100
O=C(O)C(F)(F)C(F)(F)C(F)F [2,2,3,3,4,4-Hexafluorobutanoic_acid]	> 100	> 100	> 100	> 100	> 100	> 100	> 100	> 100	> 100	> 100	> 100	> 100	> 100	> 100	> 100	> 100	> 100	> 100	> 100	0.125
O=C(O)C(F)(F)C(F)(F)C(F)(F)C(F)(F)C(F)(F)C(F)(F)C(F)(F)C(F)(F)C(F)(F)F [Perfluorodecanoic_acid]	74.6	> 100	> 100	36.5	> 100	> 100	> 100	> 100	> 100	> 100	75.8	> 100	67.6	> 100	> 100	81.5	5.59	> 100	> 100	> 100
O=C(O)C(F)(F)C(F)(F)C(F)(F)C(F)(F)F [Perfluoropentanoic_acid]	> 100	> 100	> 100	> 100	> 100	> 100	> 100	> 100	> 100	> 100	> 100	> 100	> 100	> 100	> 100	> 100	> 100	> 100	> 100	> 100
O=C(O)C(F)(F)OC(F)(F)C(F)(F)OC(F)(F)F [Perfluoro-3,6-dioxaheptanoic_acid]	> 100	> 100	> 100	> 100	> 100	> 100	> 100	> 100	> 100	> 100	> 100	> 100	> 100	> 100	> 100	> 100	> 100	> 100	> 100	> 100
NC(=O)C(F)(F)C(F)(F)C(F)(F)C(F)(F)C(N)=O [Octafluoroadipamide]	> 100	> 100	> 100	> 100	> 100	> 100	> 100	> 100	> 100	> 100	> 100	> 100	> 100	> 100	> 100	> 100	> 100	> 100	> 100	> 100
OCCC(F)(F)C(F)(F)C(F)(F)C(F)(F)C(F)(F)C(F)(F)C(F)(F)C(F)(F)F [8:2 Fluorotelomer alcohol]	> 100	> 100	> 100	> 100	> 100	> 100	> 100	> 100	> 100	> 100	> 100	> 100	> 100	> 100	> 100	> 100	> 100	> 100	> 100	> 100
CC(O)C(F)(F)C(F)(F)F (stereo not given) [1-Pentafluoroethylethanol]	> 100	> 100	> 100	> 100	> 100	> 100	> 100	> 100	> 100	> 100	> 100	> 100	> 100	> 100	> 100	> 100	> 100	> 100	> 100	> 100
O=S(=O)([O-])C(F)(F)C(F)(F)C(F)(F)C(F)(F)F.[K+] [Potassium_perfluorobutanesulfonate]	> 100	> 100	> 100	> 100	> 100	> 100	> 100	> 100	> 100	> 100	53.9	> 100	> 100	> 100	> 100	> 100	> 100	> 100	> 100	> 100
O=C(O)C(F)(F)C(F)(F)C(F)(F)C(F)(F)C(F)(F)C(F)(F)C(F)(F)C(F)(F)C(F)(F)C(F)(F)F [Perfluoroundecanoic_acid]	> 100	> 100	> 100	> 100	> 100	> 100	> 100	> 100	> 100	> 100	> 100	> 100	> 100	> 100	> 100	> 100	> 100	> 100	> 100	> 100
O=C(O)C(F)(F)C(F)(F)C(F)(F)F [Perfluorobutanoic_acid]	> 100	> 100	> 100	> 100	> 100	> 100	> 100	> 100	> 100	> 100	> 100	> 100	> 100	> 100	> 100	> 100	> 100	> 100	> 100	> 100
O=C(O)C(F)(F)C(F)(F)C(F)(F)C(F)(F)C(F)(F)F [Perfluorohexanoic_acid]	> 100	> 100	> 100	> 100	> 100	> 100	> 100	> 100	> 100	> 100	> 100	> 100	> 100	> 100	> 100	> 100	> 100	> 100	> 100	> 100
